Measurements as given in paper PMC5908784, “Extracellular loops 2 and 3 of the calcitonin receptor selectively modify agonist binding and efficacy” (Biochemical Pharmacology, 2018).
Changes are numbered by the printed parent chain. Where no end group is shown, it is not given here.

Tests used:
Experiment in all cases: Homologous whole cell competition binding
Settings in all cases: homologous competition of 125I-sCT(8-32), whole cells, mean ± S.E.M., SEM
[1] = target: T1, hCTR L291A (Homo sapiens, UniProt P30988, L291A)
T1 construct: expressed in transfected cells
T1 sequence (P30988 25-474 L291A): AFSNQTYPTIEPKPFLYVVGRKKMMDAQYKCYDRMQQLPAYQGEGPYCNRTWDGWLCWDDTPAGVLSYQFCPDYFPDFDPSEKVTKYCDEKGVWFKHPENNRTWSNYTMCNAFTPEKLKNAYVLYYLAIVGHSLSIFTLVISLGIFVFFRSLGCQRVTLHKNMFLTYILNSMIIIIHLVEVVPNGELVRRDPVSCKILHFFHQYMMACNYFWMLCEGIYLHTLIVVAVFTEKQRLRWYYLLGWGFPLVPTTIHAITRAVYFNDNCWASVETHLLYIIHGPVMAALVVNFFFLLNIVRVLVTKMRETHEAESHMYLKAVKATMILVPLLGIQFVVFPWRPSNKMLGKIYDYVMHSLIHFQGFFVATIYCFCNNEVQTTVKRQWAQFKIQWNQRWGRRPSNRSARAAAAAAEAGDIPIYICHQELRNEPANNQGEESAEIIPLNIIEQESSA
Method: (§1) Homologous radioligand competition was performed on 2.5 × 10^4 cells/well seeded into 96-well trays and cultured overnight. Cells were incubated overnight at 4 °C with two concentrations of ^125I-sCT(8-32) (between 25 and 100 pM; specific activity, 2000 Ci/mmol^9) and serial dilutions of non-iodinated sCT(8-32). Non-bound ligand was removed and bound ligand activity was measured using a γ counter (Wallac Wizard 1470 Gamma Counter, Perkin Elmer, 80% counter efficiency). Values were normalized against non-specific binding (0%) defined by the presence of 1 μM of unlabelled sCT(8-32), and total ligand bound in absence of competing sCT(8-32) (100%).
(§2) IC50 and Bmax values were estimated from competitive inhibition of ^125I-sCT(8-32) binding using a 3-parameter logistic equation (log(inhibitor versus response)) in Prism (v7; Graphpad). Data were corrected for radioligand occupancy using the Cheng-Prusoff equation in Prism; as such data are reported as pKi. Emax and EC50 were estimated from concentration-response curves using with a 3-parameter logistic equation in Prism (v7). These values are a composite of functional affinity, efficacy and stimulus response coupling. The Black and Leff operational model of agonism was applied to separate effects on pathway-specific efficacy (τ) from those that modify ligand functional affinity (pKA). Derived τ values were normalized to experimentally determined levels of cell surface expression to provide a measure of efficacy (τc) that is independent of affinity and altered cell surface receptor expression. pKi, pKA and log τc values for mutant receptors were statistically compared to those of the WT receptor using a one-way analysis of variance (ANOVA) and Dunnett’s post-test. Significance was accepted at P < 0.05.

[2] = target: T2, hCTR L368A (Homo sapiens, UniProt P30988, L368A)
T2 construct: c-Myc (N); expressed in transfected cells
T2 sequence (P30988 25-474 L368A): T1 sequence (P30988 25-474 L291A) with A267L, L344A
Method: as §1, §2

[3] = target: T3, hCTR M367A (Homo sapiens, UniProt P30988, M367A)
T3 construct: c-Myc (N); expressed in transfected cells
T3 sequence (P30988 25-474 M367A): T1 sequence (P30988 25-474 L291A) with A267L, M343A
Method: as §1, §2

[4] = target: T4, hCTR Y299A (Homo sapiens, UniProt P30988, Y299A)
T4 construct: c-Myc (N); expressed in transfected cells
T4 sequence (P30988 25-474 Y299A): T1 sequence (P30988 25-474 L291A) with A267L, Y275A
Method: as §1, §2

Ki [1]: 1.74 nM
Ki [2]: 0.209 nM
Ki [3]: 0.295 nM
Ki [4]: 0.107 nM
Substance: VLGKLSQELHKLQTYPRTNTGSGTP-NH2 [sCT(8-32)]
